Test results as given in EP4389156A1, “RA[…] LIGAND COMPOUNDS AND PRECURSORS THEREOF” (Technische Universität München, priority 2022, dated 2024).
Where “and” joins values, the source holds several entries; their conditions need not be identical. Equal values may be shown once.

Assays:
[1] = Lipophilicity (logD7.4), shake-flask method; type: physicochemical; conditions: n-octanol/PBS (pH 7.4), n = 8, mean ± SD
Protocol: The lipophilicity of ^99mTc-labeled PSMA ligands, expressed as distribution coefficient (logD7.4), was determined using the shake-flask method. A solution of approximately 1 MBq of radioligand in 1 mL of a 1:1 mixture of PBS (pH = 7.4) and n-octanol (n = 8) was vortexed vigorously for 3 min. After centrifugation at 9000 rpm for 5 min aliquots of both phases (200 µL n-octanol, 50 µL PBS) were collected and the activity was quantified in a γ-counter. logD7.4 values were calculated as decadic logarithm of the activity concentration ratio between the n-octanol phase and the aqueous phase. Data are given as mean ± standard deviation (SD). Binding to human plasma was determined by incubation of radioligands in human plasma (2 nM concentration, 37 °C for 30 min) and subsequent ultrafiltration (250 µL aliquots, 3200 rpm, 40 min) in Centrifree® ultrafiltration devices (Merck Millipore, Cork, Ireland). The fraction bound to human plasma proteins was calculated as the ratio of unfiltered activity and the total activity in the ultrafiltration device. Measurements were performed in three independent experiments, each with two replicates (n = 6, data are given as mean ± SD). All values were corrected for non-specific binding (control experiments in PBS).

[2] = molecular target: T1, human serum albumin (HSA) (Homo sapiens, UniProt P02768); assay: HSA binding by high performance affinity chromatography (HPAC); type: in vitro ADME; conditions: uncomplexed compounds, n = 1
T1 construct: purchased Daicel, Tokyo, Japan H13H-2433
T1 sequence (P02768 25-609): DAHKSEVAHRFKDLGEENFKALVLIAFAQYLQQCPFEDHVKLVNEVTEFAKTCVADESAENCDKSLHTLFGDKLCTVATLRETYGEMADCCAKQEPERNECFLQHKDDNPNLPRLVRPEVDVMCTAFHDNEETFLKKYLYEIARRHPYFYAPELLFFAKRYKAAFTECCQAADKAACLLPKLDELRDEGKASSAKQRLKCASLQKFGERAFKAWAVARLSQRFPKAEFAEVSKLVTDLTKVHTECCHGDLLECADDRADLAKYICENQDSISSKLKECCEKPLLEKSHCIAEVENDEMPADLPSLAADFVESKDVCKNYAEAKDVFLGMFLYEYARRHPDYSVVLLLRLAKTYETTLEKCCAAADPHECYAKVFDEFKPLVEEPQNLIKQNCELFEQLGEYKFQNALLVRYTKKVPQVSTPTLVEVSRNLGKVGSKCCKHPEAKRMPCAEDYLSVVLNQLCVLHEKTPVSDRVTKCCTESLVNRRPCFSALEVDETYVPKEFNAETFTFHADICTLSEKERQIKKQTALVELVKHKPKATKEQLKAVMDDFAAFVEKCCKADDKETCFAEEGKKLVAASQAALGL
Protocol: HSA binding of the uncomplexed PSMA ligands was determined according to a previously published procedure via HPLC (Valko, K.; Nunhuck, S.; Bevan, C.; Abraham, M. H.; Reynolds, D. P., Fast gradient HPLC method to determine compounds binding to human serum albumin. Relationships with octanol/water and immobilized artificial membrane lipophilicity. J Pharm Sci. 2003, 92, 2236-2248). A Chiralpak HSA column (50 × 3 mm, 5 µm, H13H-2433, Daicel, Tokyo, Japan) was used at a constant flow rate of 0.5 mL/min at rt. Mobile phase A was a freshly prepared 50 mM aqueous solution of NH4OAc (pH 6.9) and mobile phase B was isopropanol (HPLC grade, VWR). The applied gradient for all experiments was 100% A (0 to 3 min), followed by 80% A (3 to 40 min). Prior to the experiment, the column was calibrated using nine reference substances with a HSA binding, known from literature, in the range of 13 to 99% (Valko, K.; Nunhuck, S.; Bevan, C.; Abraham, M. H.; Reynolds, D. P., J Pharm Sci. 2003, 92, 2236-2248; Yamazaki, K.; Kanaoka, M., Computational prediction of the plasma protein-binding percent of diverse pharmaceutical compounds. J Pharm Sci. 2004, 93, 1480-1494). All substances, including the examined PSMA ligands, were dissolved in a 1:1 mixture (v/v) of isopropanol and a 50 mM aqueous solution of NH4OAc (pH 6.9) with a final concentration of 0.5 mg/mL. Non-linear regression was established with the OriginPro 2016G software (Northampton, United States).

PSMA = molecular target: T2, PSMA (Homo sapiens, UniProt Q04609); assay: Competitive binding study, inverse IC50 (99mTc-radioligand versus increasing IBA-KuE); conditions: inverse IC50: IBA-KuE competes against 99mTc-radioligand (0.2 nM/well); higher values = higher affinity; 1 h, 4°C, n = 3, mean ± SD; read-out: IC50, inv.
T2 construct: endogenous in cells; printed for the internalization assay of the same paragraph
T2 sequence (Q04609 whole entry): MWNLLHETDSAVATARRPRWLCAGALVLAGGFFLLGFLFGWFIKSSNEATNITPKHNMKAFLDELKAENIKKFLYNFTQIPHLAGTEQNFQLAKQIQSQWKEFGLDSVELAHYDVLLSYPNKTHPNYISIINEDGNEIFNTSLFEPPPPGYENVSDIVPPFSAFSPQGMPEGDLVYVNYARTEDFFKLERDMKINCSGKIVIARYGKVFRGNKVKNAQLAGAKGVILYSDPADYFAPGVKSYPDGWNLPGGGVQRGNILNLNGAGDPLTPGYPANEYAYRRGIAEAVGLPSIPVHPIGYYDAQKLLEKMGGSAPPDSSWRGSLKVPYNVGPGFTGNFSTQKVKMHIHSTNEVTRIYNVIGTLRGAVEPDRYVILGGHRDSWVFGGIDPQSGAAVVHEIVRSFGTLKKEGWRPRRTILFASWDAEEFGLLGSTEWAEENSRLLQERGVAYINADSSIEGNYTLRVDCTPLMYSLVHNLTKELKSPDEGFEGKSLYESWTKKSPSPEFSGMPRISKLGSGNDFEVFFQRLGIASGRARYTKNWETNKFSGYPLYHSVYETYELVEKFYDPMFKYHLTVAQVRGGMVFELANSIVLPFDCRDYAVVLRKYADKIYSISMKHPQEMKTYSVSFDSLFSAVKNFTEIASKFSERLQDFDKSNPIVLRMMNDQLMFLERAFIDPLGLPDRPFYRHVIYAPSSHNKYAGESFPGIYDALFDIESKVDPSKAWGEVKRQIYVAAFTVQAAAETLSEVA
Protocol: (§1) Competitive binding studies were carried out in analogy to a previously reported procedure. As a modification the non-radiolabeled standard competitor (((S)-1-carboxy-5-(4-(iodo)benzamido)pentyl)carbamoyl)-L-glutamic acid (IBA-KuE) was applied in increasing concentrations (10^-5 - 10^-11 M/well, n = 3 each) whereas the novel PSMA-binding compounds of interest were applied as ^99mTc-labeled radioligands (0.2 nM/well). In this inversed experimental approach, higher values correspond to higher affinities and are referred to as inverse IC50. Poly-L-lysine coated 24-well plates were used (n = 3). Data are given as mean ± SD. To determine the cellular uptake of the ^99mTc-labeled PSMA ligands into LNCaP cells by means of PSMA-mediated internalization at 1 h, a previously reported protocol was applied with assay concentrations of 1.0 nM and 0.2 nM for ^99mTc-labeled PSMA ligands and the reference compound [^125I]IBA-KuE, respectively. Data are corrected for non-specific binding and normalized to the specific internalization of the reference. Results are given as mean ± SD.

LNCaP cells = assay: PSMA-mediated internalization into LNCaP cells; type: cell-based; conditions: 1 h, 37°C, n = 3, as percentage of reference [125I]IBA-KuE, mean ± SD
Protocol: as §1

[3] = tested on: LNCaP tumor-bearing CB17-SCID mice; assay: Biodistribution study in LNCaP tumor-bearing mice; type: in vivo; conditions: 6 h p.i.; for uptake in % iD/g adrenals / uptake in % iD/g blood / uptake in % iD/g bone / uptake in % iD/g heart / uptake in % iD/g intestine / uptake in % iD/g kidney / uptake in % iD/g liver / uptake in % iD/g lung / uptake in % iD/g muscle / uptake in % iD/g pancreas / uptake in % iD/g parotid gland / uptake in % iD/g spleen / uptake in % iD/g stomach / uptake in % iD/g submandibular gland / uptake in % iD/g tumor: male LNCaP tumor-bearing CB17-SCID mice, mean; for uptake in % iD/g adrenals / uptake in % iD/g blood / uptake in % iD/g bone / uptake in % iD/g heart / uptake in % iD/g intestine / uptake in % iD/g kidney / uptake in % iD/g liver / uptake in % iD/g lung / uptake in % iD/g muscle / uptake in % iD/g pancreas / uptake in % iD/g parotid gland / uptake in % iD/g spleen / uptake in % iD/g stomach / uptake in % iD/g submandibular gland / uptake in % iD/g tumor / tumor-to-background ratio adrenals / tumor-to-background ratio blood / tumor-to-background ratio bone / tumor-to-background ratio heart / tumor-to-background ratio intestine / tumor-to-background ratio kidney / tumor-to-background ratio liver / tumor-to-background ratio lung / tumor-to-background ratio muscle / tumor-to-background ratio pancreas / tumor-to-background ratio parotid gland / tumor-to-background ratio spleen / tumor-to-background ratio stomach / tumor-to-background ratio submandibular gland: n = 4-5; for tumor-to-background ratio adrenals / tumor-to-background ratio blood / tumor-to-background ratio bone / tumor-to-background ratio heart / tumor-to-background ratio intestine / tumor-to-background ratio kidney / tumor-to-background ratio liver / tumor-to-background ratio lung / tumor-to-background ratio muscle / tumor-to-background ratio pancreas / tumor-to-background ratio parotid gland / tumor-to-background ratio spleen / tumor-to-background ratio stomach / tumor-to-background ratio submandibular gland: mean of ratios of individual animals; for Blood activity levels increased, as compared to [^99mTc]Tc-N4-PSMA-12: relative to [^99mTc]Tc-N4-PSMA-12
Protocol: All animal experiments were conducted in accordance with general animal welfare regulations in Germany (German animal protection act, in the edition of the announcement, dated May 18th, 2006, as amended by Article 280 of June 19th 2020, approval no. ROB-55.2-1-2532.Vet_02-18-109 by the General Administration of Upper Bavaria) and the institutional guidelines for the care and use of animals. Male CB17-SCID mice were purchased from Charles River (Sulzfeld, Germany) and arrived at the in-house animal facility to acclimate at least 1 week before the start of the experiment. Tumor xenografts were established by subcutaneous inoculation of LNCaP cells (approx. 2 × 10^7 cells in 200 µL of a 1:1 mixture of Cultrex BME (R&D Systems, Minneapolis, United States) and DMEM/Ham's F-12) onto the right shoulder of 6-8 weeks old male CB17-SCID mice. The animals were used for experiments when tumors had grown to a size of 5-10 mm in diameter. Criteria for the exclusion of animals from the experiment were weight loss higher than 20%, tumor size above 1.5 cm^3, ulceration of the tumor, respiratory distress or change of behavior. […] Neither randomisation nor blinding was applied in the allocation of the experiments. Quarterly health monitoring was performed according to the FELASA recommendations.
Biodistribution Studies. The ^99mTc-labeled radioligands (2.7 ± 0.7 MBq, 82 ± 20 pmol) were injected into a lateral tail vein of LNCaP-tumor bearing mice (n = 4-5) under isoflurane anesthesia. Animals were sacrificed at 6 h post injection (p.i.) by carbon dioxide inhalation and blood withdrawal via cardiac puncture. Blood and tissues of interest were collected, weighed and the activity measured in a γ-counter. Radioligand uptake is given in percent of the injected dose per gram of tissue (% ID/g) and results are presented as mean ± SD.
In line with the above, the biodistribution study of [^99mTc]Tc-N4-PSMA-21 was carried out with n = 5 animals ("data set I"). […] Kidney uptake of mouse #3 (36.17 %ID/g) exceeded the value obtained from the other four animals (4.58 ± 1.44 %ID/g, mean ± SD) 7.9-fold or by more than 20 standard deviations. In addition, tumor uptake of mouse #3 (21.92 %ID/g) exceeded the value obtained from the other four animals (11.02 ± 2.22 %ID/g, mean ± SD) 2.0-fold or by more than 4 standard deviations Due to the uncertainty whether these huge deviations arise from an experimental error or might be related to strongly deviating metabolic processes e.g. abnormal kidney function in mouse #3, the study primarily presents and discusses the data set based on the other four animals (n = 4, "data set II"). A thorough evaluation and comparison was, however, also carried out including mouse #3.

[4] = single outlier animal (mouse #3), excluded from data set II

Row | SMILES | logD7.4 [1] | HSA-binding (HPAC) (%) [2] | inverse IC50 (PSMA) | internalization (% IBA-KuE) (LNCaP cells) | uptake in % iD/g adrenals [3] | uptake in % iD/g blood [3] | uptake in % iD/g bone [3] | uptake in % iD/g heart [3] | uptake in % iD/g intestine [3] | uptake in % iD/g kidney [3] | uptake in % iD/g liver [3] | uptake in % iD/g lung [3] | uptake in % iD/g muscle [3] | uptake in % iD/g pancreas [3] | uptake in % iD/g parotid gland [3] | uptake in % iD/g spleen [3] | uptake in % iD/g stomach [3] | uptake in % iD/g submandibular gland [3] | uptake in % iD/g tumor [3] | tumor-to-background ratio adrenals [3] | further results
1 | CC(C)(C)[Si](O)(c1ccc(C(=O)NC[C@@H](NC(=O)[C@@H](Cc2ccccc2)NC(=O)C(CNCCN)CNCCN)C(=O)N[C@H](CCCCNC(=O)CCC(=O)NCCC[C@@H](NC(=O)CC[C@H](NC(=O)N[C@@H](CCC(=O)O)C(=O)O)C(=O)O)C(=O)O)C(=O)O)cc1)C(C)(C)C.[O]=[99Tc+]=[O] [[^99mTc]Tc-N4-PSMA-13] | -2.78 ± 0.05 | 89.9% | 9.98 ± 0.99 nM | 164 ± 15% | 0.5170 % ID/g | 0.0320 % ID/g | 0.0862 % ID/g | 0.0456 % ID/g | 0.2661 % ID/g | 6.6 ± 4.8 % ID/g and 6.5974 % ID/g | 0.2618 % ID/g | 0.1108 % ID/g | 0.0127 % ID/g | 0.0270 % ID/g | 0.1056 % ID/g | 0.6314 % ID/g | 0.1348 % ID/g | 0.3069 % ID/g | 12.5347 % ID/g | 24.50 | tumor-to-background ratio blood [3]: 409.29; tumor-to-background ratio bone [3]: 142.94; tumor-to-background ratio heart [3]: 276.38; tumor-to-background ratio intestine [3]: 64.62; tumor-to-background ratio kidney [3]: 2.45; tumor-to-background ratio liver [3]: 50.17; tumor-to-background ratio lung [3]: 113.30; tumor-to-background ratio muscle [3]: 1013.12; tumor-to-background ratio pancreas [3]: 496.73; tumor-to-background ratio parotid gland [3]: 119.35; tumor-to-background ratio spleen [3]: 20.57; tumor-to-background ratio stomach [3]: 101.82; tumor-to-background ratio submandibular gland [3]: 41.60; Blood activity levels increased, as compared to [^99mTc]Tc-N4-PSMA-12 [3]: 1.6 fold
2 | CC(C)(C)[Si](O)(c1ccc(C(=O)NC[C@@H](NC(=O)[C@@H](Cc2ccc(N)cc2)NC(=O)C(CNCCN)CNCCN)C(=O)N[C@H](CCCCNC(=O)CCC(=O)NCCC[C@@H](NC(=O)CC[C@H](NC(=O)N[C@@H](CCC(=O)O)C(=O)O)C(=O)O)C(=O)O)C(=O)O)cc1)C(C)(C)C.[O]=[99Tc+]=[O] [[^99mTc]Tc-N4-PSMA-21] | -3.13 ± 0.05 | 57.3% | 11.1 ± 1.42 nM | 180 ± 4% | 0.5759 % ID/g | 0.1074 % ID/g | 0.0828 % ID/g | 0.0568 % ID/g | 1.1034 % ID/g | 4.58 ± 1.44 % ID/g and 4.6 ± 1.4 % ID/g and 4.5811 % ID/g | 0.5752 % ID/g | 0.1250 % ID/g | 0.0153 % ID/g | 0.0335 % ID/g | 0.1105 % ID/g | 1.3064 % ID/g | 0.1458 % ID/g | 0.3009 % ID/g | 11.02 ± 2.22 % ID/g and 11.0155 % ID/g | 19.85 | tumor-to-background ratio blood [3]: 125.55; tumor-to-background ratio bone [3]: 207.38; tumor-to-background ratio heart [3]: 201.50; tumor-to-background ratio intestine [3]: 52.29; tumor-to-background ratio kidney [3]: 2.57; tumor-to-background ratio liver [3]: 23.75; tumor-to-background ratio lung [3]: 99.35; tumor-to-background ratio muscle [3]: 736.44; tumor-to-background ratio pancreas [3]: 350.74; tumor-to-background ratio parotid gland [3]: 101.59; tumor-to-background ratio spleen [3]: 10.32; tumor-to-background ratio stomach [3]: 114.49; tumor-to-background ratio submandibular gland [3]: 50.80; Blood activity levels increased, as compared to [^99mTc]Tc-N4-PSMA-12 [3]: 5.4 fold; Kidney uptake of mouse #3 [3, 4]: 36.17 %ID/g; tumor uptake of mouse #3 [3, 4]: 21.92 %ID/g
